Laboratory results taken from ChEMBL document CHEMBL1129591 (J Med Chem, 1996).

Assays:
[1] = biological target: 5-hydroxytryptamine receptor 1D (Homo sapiens, UniProt P28221); experiment: Binding affinity at cloned human 5-hydroxytryptamine 1D receptor
[2] = biological target: T1, 5-hydroxytryptamine receptor 1A (Homo sapiens, UniProt P08908); experiment: Ability to inhibit the forskolin-stimulated c-AMP formation mediated by human 5-hydroxytryptamine 1A receptor in CHO-K1 cells; type: functional, cell-based
T1 sequence (P08908 whole entry): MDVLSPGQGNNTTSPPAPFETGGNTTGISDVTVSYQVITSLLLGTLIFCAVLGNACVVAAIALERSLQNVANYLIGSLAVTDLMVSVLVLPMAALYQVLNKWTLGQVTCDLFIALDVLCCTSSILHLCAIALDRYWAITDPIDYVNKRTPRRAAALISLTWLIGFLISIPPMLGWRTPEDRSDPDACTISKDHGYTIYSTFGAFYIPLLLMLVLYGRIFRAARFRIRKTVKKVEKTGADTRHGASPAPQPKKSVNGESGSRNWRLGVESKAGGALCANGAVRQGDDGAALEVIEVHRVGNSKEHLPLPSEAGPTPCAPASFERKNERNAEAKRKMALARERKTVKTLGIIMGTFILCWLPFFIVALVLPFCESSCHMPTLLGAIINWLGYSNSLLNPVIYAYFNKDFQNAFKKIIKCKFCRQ

[3] = biological target: T2, 5-hydroxytryptamine receptor 1B (Homo sapiens, UniProt P28222); experiment: Ability to inhibit the forskolin-stimulated c-AMP formation mediated by human 5-hydroxytryptamine 1B receptor in CHO-K1 cells; type: functional, cell-based
[4] = biological target: T2, 5-hydroxytryptamine receptor 1B; experiment: Inhibition of forskolin-stimulated c-AMP formation by human 5-hydroxytryptamine 1B receptor expressed in CHO-K1 cells; type: functional, cell-based

T2 sequence (P28222 whole entry): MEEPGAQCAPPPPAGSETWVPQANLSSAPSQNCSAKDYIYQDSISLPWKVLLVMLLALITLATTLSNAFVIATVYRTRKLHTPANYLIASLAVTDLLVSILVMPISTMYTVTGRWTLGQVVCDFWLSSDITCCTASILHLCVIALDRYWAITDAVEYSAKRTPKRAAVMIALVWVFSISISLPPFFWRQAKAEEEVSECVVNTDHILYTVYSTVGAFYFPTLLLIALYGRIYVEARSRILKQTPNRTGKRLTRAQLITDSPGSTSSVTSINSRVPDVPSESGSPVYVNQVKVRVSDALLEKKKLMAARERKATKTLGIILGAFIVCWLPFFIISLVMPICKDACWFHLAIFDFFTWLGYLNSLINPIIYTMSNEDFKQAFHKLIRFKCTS
Sequence of 5-hydroxytryptamine receptor 1D (P28221 whole entry): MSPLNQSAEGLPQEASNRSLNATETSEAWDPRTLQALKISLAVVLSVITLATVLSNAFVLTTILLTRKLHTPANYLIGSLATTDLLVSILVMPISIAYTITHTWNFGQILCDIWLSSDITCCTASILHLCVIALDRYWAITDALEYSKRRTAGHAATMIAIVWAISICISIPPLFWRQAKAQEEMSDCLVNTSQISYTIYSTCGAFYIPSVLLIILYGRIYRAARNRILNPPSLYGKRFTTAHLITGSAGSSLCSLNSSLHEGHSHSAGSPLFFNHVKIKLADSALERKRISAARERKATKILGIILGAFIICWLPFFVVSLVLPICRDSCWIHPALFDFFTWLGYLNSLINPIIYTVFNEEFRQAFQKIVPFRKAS

Ki [1] [pM] | Ki [2] [pM] | Ki [3] [pM] | EC50 [4] [pM] | SMILES
450 | 1660 | 380 | 100 | NCCc1c[nH]c2ccc(OCCCCCCNS(=O)(=O)c3ccc(-c4ccc(S(=O)(=O)NCCCCCCOc5ccc6[nH]cc(CCN)c6c5)cc4)cc3)cc12
350 | 9500 | 260 | 190 | NCCc1c[nH]c2ccc(OCCN3CCN(CCOc4ccc5[nH]cc(CCN)c5c4)CC3)cc12
400 | 2200 | 200 | 1600 | NCCc1c[nH]c2ccc(OCCNC(=O)NCCOc3ccc4[nH]cc(CCN)c4c3)cc12
350 | 1000 | 320 | 850 | NCCc1c[nH]c2ccc(OCc3cccc(COc4ccc5[nH]cc(CCN)c5c4)c3)cc12
420 | 20000 | 360 | 280 | NCCc1c[nH]c2ccc(OCC(=O)N3CCN(C(=O)COc4ccc5[nH]cc(CCN)c5c4)CC3)cc12
110 | 4060 | 270 | 300 | NCCc1c[nH]c2ccc(OCC(=O)Nc3ccc(NC(=O)COc4ccc5[nH]cc(CCN)c5c4)cc3)cc12
110 | 1600 | 100 | 3000 | NCCc1c[nH]c2ccc(OCc3ccc(COc4ccc5[nH]cc(CCN)c5c4)cc3)cc12
300 | 8600 | 300 | 90 | NCCc1c[nH]c2ccc(OCC(=O)NCCCNC(=O)COc3ccc4[nH]cc(CCN)c4c3)cc12
270 | 4000 | 220 | 260 | NCCc1c[nH]c2ccc(OCC(=O)N3CCC(C4CCN(C(=O)COc5ccc6[nH]cc(CCN)c6c5)CC4)CC3)cc12

SMILES | Ki [1] [pM] | Ki [2] [pM] | Ki [3] [pM] | EC50 [4] [pM]
NCCc1c[nH]c2ccc(OCCNC(=O)COc3ccc4[nH]cc(CCN)c4c3)cc12 | 180 | 2200 | 160 | 440
NCCc1c[nH]c2ccc(OCc3ccccc3COc3ccc4[nH]cc(CCN)c4c3)cc12 | 1500 | 4300 | 1700 | 2070
NCCc1c[nH]c2ccc(OCCN3CCN(C(=O)COc4ccc5[nH]cc(CCN)c5c4)CC3)cc12 | 160 | 9500 | 110 | 220
NCCc1c[nH]c2ccc(OCCOc3ccc4[nH]cc(CCN)c4c3)cc12 | 1000 | 14300 | 2500 | 4000
NCCc1c[nH]c2ccc(OCC(=O)Nc3ccc(N4CCN(C(=O)COc5ccc6[nH]cc(CCN)c6c5)CC4)cc3)cc12 | 90 | 9800 | 140 | 400
NCCc1c[nH]c2ccc(OCC(=O)N3CCNCC3)cc12 | > 100000 | > 100000 | > 100000 | 
NCCc1c[nH]c2ccc(OCCCCCCOc3ccc4[nH]cc(CCN)c4c3)cc12 | 460 | 1800 | 500 | 600
